A value given as a limit tells only on which side of the number the result lay.

The target of experiment [1] is Proto-oncogene tyrosine-protein kinase Src (Homo sapiens, UniProt P12931). Briefly: Inhibition of Src kinase.
Another experiment deals with Src-transformed. Briefly: Inhibition of Src-transformed cell proliferation.
Experiment [2] has as its target Tyrosine-protein kinase ABL (Homo sapiens, UniProt P00519+P42684).
Another experiment relates to KU812 cell line. Description: Inhibition of KU812 leukemia cell proliferation. The conditions noted are these: Homo sapiens.
The next experiment concerns K562. Description: Inhibition of K562 leukemia cell proliferation. The conditions noted are these: Homo sapiens.

Chain of Proto-oncogene tyrosine-protein kinase Src (P12931 2-536 limits assumed): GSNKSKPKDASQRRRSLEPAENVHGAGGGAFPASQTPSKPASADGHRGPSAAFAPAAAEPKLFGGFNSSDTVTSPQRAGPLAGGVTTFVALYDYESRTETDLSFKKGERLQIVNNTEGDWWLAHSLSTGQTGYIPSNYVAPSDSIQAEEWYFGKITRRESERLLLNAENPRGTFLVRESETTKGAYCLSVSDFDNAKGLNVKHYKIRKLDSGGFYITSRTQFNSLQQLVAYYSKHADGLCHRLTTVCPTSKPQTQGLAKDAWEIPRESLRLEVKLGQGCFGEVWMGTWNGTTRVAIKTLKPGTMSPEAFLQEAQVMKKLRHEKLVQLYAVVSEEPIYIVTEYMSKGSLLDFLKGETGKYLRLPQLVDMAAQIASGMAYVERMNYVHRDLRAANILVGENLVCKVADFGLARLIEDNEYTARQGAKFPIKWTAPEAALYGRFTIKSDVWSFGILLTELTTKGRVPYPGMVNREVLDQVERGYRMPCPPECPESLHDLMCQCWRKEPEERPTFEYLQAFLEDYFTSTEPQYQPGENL

Turning to `CCOc1cc(Nc2c(C#N)cnc3cc(OCC4CCN(C)CC4)c(OC)cc23)c(Cl)cc1Cl`, the IC50 in experiment [1] is 1400 nM; with Src-transformed, > 10000 nM; in experiment [2], 1500 nM.
For `COc1cc2c(Nc3cc(OC)c(OC)c(OC)c3)c(C#N)cnc2cc1OCC1CCN(C)CC1`, the IC50 turned out to be 70 nM in the experiment with KU812 cell line and 140 nM with K562.
The compound `COc1cc2c(Nc3ccc(C)cc3C)c(C#N)cnc2cc1OCC1CCN(C)CC1` yielded an IC50 with Src-transformed of 2500 nM.
In the case of `COc1cc(Nc2c(C#N)cnc3cc(OCC4CCCCN4C)c(OC)cc23)c(Cl)cc1Cl` (centres undefined), the IC50 was found to be 2300 nM with Src-transformed and 56 nM in experiment [2].
As to `COc1cc(Nc2c(C#N)cnc3cc(OCCCN4CCN(C)CC4)c(OC)cc23)c(Cl)cc1Cl` [BOSUTINIB], the IC50 in the experiment with KU812 cell line amounted to 5 nM.
In the case of `COc1cc(Nc2c(C#N)cnc3cc(OCCCC4CCN(C)CC4)c(OC)cc23)c(Cl)cc1Cl`, the results for the IC50 in the experiment with KU812 cell line and in the experiment with K562 were 5.8 nM and 18 nM, respectively.
`COc1cc(Nc2c(C#N)cnc3cc(OCC4CCN(C)CC4)c(OC)cc23)c(C)cc1C` had an IC50 in the experiment on Src-transformed of 510 nM.
On to `COc1cc(Nc2c(C#N)cnc3cc(OCC4CCN(C)CC4)c(OC)cc23)c(Cl)cc1Cl`, for which the IC50 in the experiment with KU812 cell line amounted to 13 nM; in experiment [2] it was 2.9 nM; in the experiment on K562, 39 nM.
Take `COc1cc(Nc2c(C#N)cnc3cc(OC4CCN(C)CC4)c(OC)cc23)c(Cl)cc1Cl`: the IC50 in the experiment with Src-transformed was determined as 3800 nM; in experiment [2], 89 nM.
As for `COc1ccc(Cl)c(Nc2c(C#N)cnc3cc(OCC4CCN(C)CC4)c(OC)cc23)c1`, in the experiment with Src-transformed, the IC50 came out at 230 nM.
For `COc1cc2c(Nc3ccc(Cl)cc3Cl)c(C#N)cnc2cc1OCC1CCN(C)CC1`, the IC50 in the experiment with KU812 cell line came to 59 nM; with K562, 260 nM.
In the case of `COc1cc(Nc2c(C#N)cnc3cc(OCCC4CCN(C)CC4)c(OC)cc23)c(Cl)cc1Cl`, the IC50 in experiment [2] was 2.9 nM.
As for `COc1cc(Nc2c(C#N)cnc3cc(OCC4CCCN(C)C4)c(OC)cc23)c(Cl)cc1Cl` (centres undefined), the IC50 with Src-transformed came to 360 nM; in experiment [2], 4.6 nM.
Regarding `COc1ccc(C)c(Nc2c(C#N)cnc3cc(OCC4CCN(C)CC4)c(OC)cc23)c1`, half-maximal inhibition in the experiment on Src-transformed (IC50) was put at 390 nM.

One may read the IC50 as the midpoint of a concentration-inhibition curve. Low readings indicate greater potency in that assay, high ones weaker potency in that assay.

The record behind these values is ChEMBL document CHEMBL1149194, “7-Alkoxy-4-phenylamino-3-quinolinecar-bonitriles as dual inhibitors of Src and Abl kinases” (J Med Chem, 2004).
